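A five-concentration, 48-hour dose response in 96-well plates underlies each endpoint, interpolated linearly between surrounding concentrations. Here, GI50 denotes the concentration required for 50% inhibition of growth.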 Active and inactive are the calls of the source. Rule as the data show it: active = GI50 up to about 1.1 µM and inactive = higher.
Legend:
Assay in all cases: NCI anticancer screen, dose series, 48 h
HCC 2998 = test system: HCC 2998
SF-539 = test system: SF-539
K562 = test system: K562
OVCAR-8 = test system: OVCAR-8
UO-31 = test system: UO-31
SK-MEL-5 = test system: SK-MEL-5
SNB-19 = test system: SNB-19
EKVX = test system: EKVX
HOP-62 = test system: HOP-62
OVCAR-3 = test system: OVCAR-3
SNB-75 = test system: SNB-75
CCRF-CEM = test system: CCRF-CEM
Malme-3M = test system: Malme-3M
HOP-92 = test system: HOP-92
NCI-H460 = test system: NCI-H460
HL-60 = test system: HL-60

Measured: GI50

COc1ccccc1NC(=O)CC(=O)NNCC(=O)Nc1nnc(-c2ccccc2)o1
inactive: HCC 2998 > 100 µM | SF-539 > 100 µM | K562 > 100 µM | OVCAR-8 > 100 µM | UO-31 > 100 µM | SK-MEL-5 > 100 µM | SNB-19 > 100 µM | EKVX > 100 µM | HOP-62 > 100 µM | OVCAR-3 > 100 µM | SNB-75 > 100 µM

Nc1ccc(C(=O)N/C(=C\c2cccc([N+](=O)[O-])c2)c2nc3cc(Cl)ccc3[nH]2)cc1
inactive: HCC 2998 > 100 µM | CCRF-CEM > 100 µM | SF-539 > 100 µM | K562 > 100 µM | OVCAR-8 > 100 µM | UO-31 36.1 µM | Malme-3M > 100 µM | SK-MEL-5 > 100 µM | SNB-19 > 100 µM | EKVX > 100 µM | OVCAR-3 > 100 µM | HOP-92 24.4 µM

C=CCN(N=O)C(=O)N(CCCC(NC(C)=O)C(=O)NCc1ccccc1)Cc1ccccc1 (configuration not stated)
inactive: CCRF-CEM 28.2 µM | SF-539 37.2 µM | K562 37 µM | OVCAR-8 67.3 µM | UO-31 33.1 µM | Malme-3M 98.4 µM | SK-MEL-5 31.1 µM | SNB-19 82.6 µM | EKVX 58.2 µM | NCI-H460 55.8 µM | HOP-62 > 100 µM | OVCAR-3 31 µM | HL-60 19.6 µM | SNB-75 39 µM

CC1(C)OC(COCCOCCCCCO)C(COCCOCCCCCO)O1 (configuration not stated)
inactive: HCC 2998 > 100 µM | K562 > 100 µM | OVCAR-8 > 100 µM | UO-31 > 100 µM | Malme-3M > 100 µM | SK-MEL-5 > 100 µM | SNB-19 > 100 µM | EKVX > 100 µM | NCI-H460 > 100 µM | HOP-62 > 100 µM | OVCAR-3 > 100 µM | HL-60 > 10 µM | SNB-75 > 100 µM

Cc1ccccc1NC(=O)Cc1nc2ccccc2s1
inactive: HCC 2998 34 µM | CCRF-CEM 9.51 µM | SF-539 18.9 µM | K562 18.3 µM | OVCAR-8 17.7 µM | UO-31 11.5 µM | Malme-3M 15.8 µM | SK-MEL-5 51.2 µM | SNB-19 29.7 µM | EKVX 19.7 µM | NCI-H460 19.4 µM | HOP-62 > 10 µM | OVCAR-3 18 µM | HL-60 9.44 µM | SNB-75 61 µM

CCOc1ccc(NC(=O)CCC(=O)NN)cc1
inactive: HCC 2998 > 100 µM | CCRF-CEM > 100 µM | K562 > 100 µM | OVCAR-8 > 100 µM | UO-31 > 100 µM | Malme-3M > 100 µM | SK-MEL-5 > 100 µM | SNB-19 > 100 µM | EKVX > 100 µM | NCI-H460 > 100 µM | HOP-62 > 100 µM | OVCAR-3 > 100 µM | HL-60 > 100 µM | HOP-92 > 100 µM | SNB-75 > 100 µM

COc1ccc2c(c1)[n+]([O-])c(-c1ccc(Br)cc1)c(N)[n+]2[O-]
inactive: CCRF-CEM 50.4 µM | SF-539 36.1 µM | K562 39.2 µM | OVCAR-8 37.2 µM | UO-31 80.2 µM | Malme-3M 25.2 µM | SK-MEL-5 17.7 µM | SNB-19 > 100 µM | EKVX 51.1 µM | NCI-H460 36.3 µM | HOP-62 88.3 µM | OVCAR-3 35.4 µM | HL-60 21.1 µM | HOP-92 > 100 µM | SNB-75 63.1 µM

COc1ccc(C(C#N)NNC(=O)Cc2ccccc2)cc1OC (configuration not stated)
inactive: CCRF-CEM > 100 µM | SF-539 > 100 µM | K562 > 100 µM | OVCAR-8 > 100 µM | UO-31 > 100 µM | Malme-3M > 100 µM | SK-MEL-5 > 100 µM | NCI-H460 > 100 µM | HOP-62 > 100 µM | HL-60 > 100 µM | HOP-92 > 100 µM | SNB-75 39.9 µM

C=CCN(N=O)C(=O)N(CCC)CCCC(NC(C)=O)C(=O)NCc1ccccc1 (configuration not stated)
inactive: CCRF-CEM > 100 µM | SF-539 > 100 µM | K562 > 100 µM | OVCAR-8 > 100 µM | UO-31 > 100 µM | Malme-3M > 100 µM | SK-MEL-5 > 100 µM | SNB-19 > 100 µM | EKVX > 100 µM | NCI-H460 > 100 µM | HOP-62 > 100 µM | OVCAR-3 > 100 µM | HL-60 > 100 µM | SNB-75 > 100 µM

COC(=O)/C(=N/NC(=O)C[N+](C)(C)C)C(C(=O)OC)C(=O)C(=O)Nc1ccc(F)cc1 (configuration not stated)
inactive: HCC 2998 > 100 µM | CCRF-CEM > 100 µM | SF-539 > 100 µM | K562 > 100 µM | UO-31 > 100 µM | Malme-3M > 100 µM | SK-MEL-5 > 100 µM | SNB-19 > 100 µM | EKVX > 100 µM | NCI-H460 > 100 µM | HOP-62 > 100 µM | OVCAR-3 > 100 µM | HL-60 > 100 µM | SNB-75 > 100 µM

CCOC(=O)C(=O)Nc1c(C)cccc1C(C)C
inactive: CCRF-CEM > 100 µM | SF-539 > 100 µM | K562 > 100 µM | OVCAR-8 > 100 µM | UO-31 > 100 µM | Malme-3M > 100 µM | SK-MEL-5 > 100 µM | SNB-19 > 100 µM | EKVX > 100 µM | NCI-H460 > 100 µM | HOP-62 > 100 µM | OVCAR-3 > 100 µM | HL-60 > 100 µM | HOP-92 > 100 µM | SNB-75 51.2 µM

CN(C)CCNC(=O)c1ccccc1Nc1c(Cl)cccc1Cl
inactive: HCC 2998 10.6 µM | CCRF-CEM 12.7 µM | SF-539 13.1 µM | K562 13.4 µM | OVCAR-8 14.1 µM | UO-31 4.52 µM | SK-MEL-5 2.89 µM | SNB-19 16.1 µM | EKVX 8.2 µM | HOP-62 13.7 µM | HL-60 11 µM | SNB-75 2.07 µM

COC(=O)/C(=N\NC(N)=O)C(C(=O)C=C(C)C)C(=O)C(=O)Nc1ccc(Cl)c(Cl)c1 (configuration not stated)
inactive: HCC 2998 > 100 µM | CCRF-CEM > 100 µM | SF-539 > 100 µM | K562 > 100 µM | OVCAR-8 > 100 µM | UO-31 > 100 µM | Malme-3M > 100 µM | SK-MEL-5 > 100 µM | SNB-19 > 100 µM | EKVX > 100 µM | NCI-H460 > 100 µM | HOP-62 > 100 µM | OVCAR-3 > 100 µM | HL-60 > 100 µM | SNB-75 > 100 µM

CCCCCC(=O)OCCOCCOCCOCCOCCOCc1ccccc1
inactive: SF-539 > 100 µM | OVCAR-8 > 100 µM | Malme-3M > 100 µM | SK-MEL-5 > 100 µM | SNB-19 > 100 µM | EKVX > 100 µM | NCI-H460 > 100 µM | HOP-62 > 100 µM | OVCAR-3 > 100 µM | HOP-92 > 100 µM

c1ccc2c(c1)Sc1ccccc1N2C1CN2CCC1CC2 (configuration not stated)
inactive: HCC 2998 14.5 µM | CCRF-CEM 16.5 µM | SF-539 14 µM | K562 13.7 µM | OVCAR-8 16.4 µM | UO-31 16.7 µM | Malme-3M 16.3 µM | SK-MEL-5 15.6 µM | SNB-19 18.8 µM | EKVX 13 µM | NCI-H460 16.1 µM | HOP-62 12.9 µM | OVCAR-3 15.8 µM | HL-60 14.9 µM | SNB-75 6 µM

Reference: ChEMBL document CHEMBL1201862, “PubChem BioAssay data set” (2004)
